Experiment in all cases: cells
Common to all, as to design: species or system panel of 482 human cancer cell lines; ATPLite luminescence growth inhibition after treatment, nine-point dilution curve, 482 cancer cell lines, 384-well
Common to all, as to conditions: 72 h, recommended growth medium
A general note: In ATP-based viability assays light output follows the ATP content of the culture.

One assay deals with 2313287_STOMACH. In short, it runs like this:
(§1)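 Growth inhibition was measured across a panel of 482 cancer cell lines. Cells were plated at 500 cells per well in recommended growth media in black, tissue culture treated 384-well plates, centrifuged to equilibrate, and incubated 24 h before dosing. Compounds were tested as nine-point dilution curves for 72 h, with viability read by ATPLite luminescence relative to DMSO-treated controls.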

The next assay concerns AU565_BREAST. In short, it runs like this: as §1
The subject of a further assay is DU4475_BREAST. In short, it runs like this: as §1
A further assay has as its system HCC2218_BREAST. An outline of the steps: as §1
Another assay has as its system HCC95_LUNG. In short, it runs like this: as §1
A further assay deals with HEP3B217_LIVER. In short, it runs like this:
as §1

The subject of another assay is JHH6_LIVER. An outline of the steps:
as §1

A further assay deals with LK2_LUNG. An outline of the steps:
as §1

The next assay concerns LU24_LUNG. In short, it runs like this: as §1
The subject of a further assay is NCIH1869_LUNG. In short, it runs like this: as §1
In assay [1] the test system is OCILY3_HAEMATOPOIETIC_AND_LYMPHOID_TISSUE. An outline of the steps:
as §1

Assay [2] relates to SUDHL2EPST_HAEMATOPOIETIC_AND_LYMPHOID_TISSUE. In short, it runs like this: as §1
The next assay concerns TE14_OESOPHAGUS
An outline of the steps: as §1

In a further assay the test system is UACC893_BREAST. In short, it runs like this:
as §1

Molecules are shown by their SMILES.

In general, GI50 refers to the concentration giving 50% growth inhibition. High values mean lower sensitivity of the cells, low ones greater sensitivity of the cells. In the case of `CCN(C/C=C/C#CC(C)(C)C)Cc1cccc(OCc2cc(-c3ccsc3)cs2)c1` [NB-598], the GI50 with 2313287_STOMACH was determined as 2190 nM; in the assay with AU565_BREAST, 399000 nM; in the assay on DU4475_BREAST it was 61.7 nM; with HCC2218_BREAST, 7170 nM; in the assay on HCC95_LUNG, 134 nM; with HEP3B217_LIVER, 9960 nM. In addition, the GI50 with JHH6_LIVER amounted to 8890 nM; with LK2_LUNG it was 22.4 nM; with LU24_LUNG it was 6570 nM; in the assay on NCIH1869_LUNG it was 15.2 nM; in assay [1] it was 91.1 nM; in assay [2] it was 25.7 nM. Further, the values for the GI50 with TE14_OESOPHAGUS and in the assay with UACC893_BREAST were 164000 nM and 1190 nM, respectively.

These data come from PMC6327044, “A chemical biology screen identifies a vulnerability of neuroendocrine cancer cells to SQLE inhibition” (Nature Communications, 2019).
